Source: ChEMBL document CHEMBL2331426, “A formyl peptide substituted with a conformationally constrained phenylalanine residue evokes a selective immune response in human neutrophils” (Bioorg Med Chem, 2013)
The source made the active and inactive calls. The rule behind the calls is not given here.

How the values were obtained:
[1] = target: T1, fMet-Leu-Phe receptor 1/2 (Homo sapiens) (UniProt P21462+P25090); assay: Agonist activity at FPR1/FPR2 receptor in human neutrophils assessed as induction of superoxide radical generation at 1 uM by spectrophotometric analysis
[2] = target: T1, fMet-Leu-Phe receptor 1/2 (Homo sapiens); assay: Agonist activity at FPR1/FPR2 receptor in human neutrophils assessed as increase in intracellular calcium concentration at 0.1 uM by Fura-2-based spectrofluorophotometric analysis; type: functional, cell-based
[3] = target: T2, N-formyl peptide receptor 2 (Homo sapiens) (UniProt P25090); assay: Binding affinity to FPR2 receptor in human neutrophils assessed as induction of intracellular calcium mobilization at 1 uM in presence of MMK-1; type: functional, cell-based
T2 sequence (whole entry): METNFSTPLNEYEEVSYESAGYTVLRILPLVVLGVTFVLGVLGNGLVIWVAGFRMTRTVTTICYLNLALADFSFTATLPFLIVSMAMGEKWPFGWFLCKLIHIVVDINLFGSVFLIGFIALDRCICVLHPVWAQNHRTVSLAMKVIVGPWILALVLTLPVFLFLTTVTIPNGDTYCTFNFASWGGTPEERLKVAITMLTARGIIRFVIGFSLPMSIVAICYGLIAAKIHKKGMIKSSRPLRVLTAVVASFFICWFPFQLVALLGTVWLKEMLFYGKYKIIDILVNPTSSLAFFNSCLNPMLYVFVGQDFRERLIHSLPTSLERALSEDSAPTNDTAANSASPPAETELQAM

[4] = target: T1, fMet-Leu-Phe receptor 1/2 (Homo sapiens); assay: Agonist activity at FPR1/FPR2 receptor in human neutrophils assessed as stimulation of fMLP-OMe-induced superoxide radical generation at 0.1 uM incubated for 5 mins followed by fMLP-OMe induction by spectrophotometric analysis relative to control
[5] = target: T1, fMet-Leu-Phe receptor 1/2 (Homo sapiens); assay: Agonist activity at FPR1/FPR2 receptor in human neutrophils assessed as induction of chemotaxis after 60 mins relative to fMLP-OMe
[6] = target: T3, fMet-Leu-Phe receptor 1/2 (Homo sapiens, UniProt P21462+P25090); assay: Agonist activity at FPR1/FPR2 receptor in human neutrophils assessed as induction of chemotaxis after 60 mins
T3 sequence (P21462 whole entry): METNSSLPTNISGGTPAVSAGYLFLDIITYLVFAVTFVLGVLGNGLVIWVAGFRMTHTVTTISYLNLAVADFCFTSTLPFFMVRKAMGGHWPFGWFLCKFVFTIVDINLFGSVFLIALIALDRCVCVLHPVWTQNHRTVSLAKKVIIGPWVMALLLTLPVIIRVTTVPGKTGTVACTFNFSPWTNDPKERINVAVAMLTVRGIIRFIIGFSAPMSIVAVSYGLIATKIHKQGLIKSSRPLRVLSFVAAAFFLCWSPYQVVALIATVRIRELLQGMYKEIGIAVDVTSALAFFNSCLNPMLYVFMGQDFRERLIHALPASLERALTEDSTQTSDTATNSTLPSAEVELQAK
T3 sequence (P25090 whole entry): T2 sequence (whole entry)

[7] = target: T1, fMet-Leu-Phe receptor 1/2 (Homo sapiens); assay: Agonist activity at FPR1/FPR2 receptor in human neutrophils assessed as increase in intracellular calcium concentration by spectrofluorophotometric analysis; type: functional, cell-based
[8] = target: T3, fMet-Leu-Phe receptor 1/2; assay: Agonist activity at FPR1/FPR2 receptor in human neutrophils assessed as induction of superoxide radical generation by spectrophotometric analysis
[9] = target: T1, fMet-Leu-Phe receptor 1/2 (Homo sapiens); assay: Agonist activity at FPR1/FPR2 receptor in human neutrophils assessed as induction of superoxide radical generation at 1 uM by […] spectrophotometric analysis relative to fMLP-OMe

Row | Activity [1] [%] | Activity [2] | Activity [3] | Activity [4] [%] | Activity [5] [%] | EC50 [6] [nM] | Activity [7] | EC50 [8] [nM] | Activity [9] [%] | Structure (SMILES)
1 | 10 | Active | inactive | 114 | 53 | 4.7 |  |  |  | COC(=O)[C@@]1(NC(=O)[C@H](CC(C)C)NC(=O)[C@H](CCSC)NC=O)C[C@H]1c1ccccc1
2 |  |  |  |  |  |  | Active |  |  | CSCC[C@H](NC(=O)[C@H](Cc1ccc(O)cc1)NC(=O)[C@H](CCCCN)NC(=O)[C@@H](N)Cc1c[nH]c2ccccc12)C(=O)N[C@H](C(=O)N[C@H](CCSC)C(=O)O)C(C)C
3 |  | Active |  |  |  | 2.5 |  | 16 |  | COC(=O)[C@H](Cc1ccccc1)NC(=O)[C@H](CC(C)C)NC(=O)[C@H](CCSC)NC=O
4 |  | Active | Active | 200 | 26 | 9.1 |  | 250 | 6.4 | CSCC[C@H](NC=O)C(=O)N[C@@H](CC(C)C)C(=O)N[C@]1(C(=O)O)C[C@@H]1c1ccccc1
5 | 10 | Active | Active | 175 | 12 | 21 |  |  | 45 | COC(=O)[C@]1(NC(=O)[C@H](CC(C)C)NC(=O)[C@H](CCSC)NC=O)C[C@H]1c1ccccc1
6 | 10 | Active | inactive | 114 | 18 | 14 |  |  |  | COC(=O)[C@]1(NC(=O)[C@H](CC(C)C)NC(=O)[C@H](CCSC)NC=O)C[C@@H]1c1ccccc1
